Here are results for ten molecules from patent publication US4226883A, “Carbamate derivatives and method for manufacture thereof” (priority 1974, dated 1980).

SMILES strings stand for the structures.

The first series concerns resistant green rice leafhoppers (R).
Assay: not given
The settings on record: ratio of the resistant strain to the susceptible strain (LD50); 1440 min. The method, then:
(1) A 20-mg portion of a given test compound was weighed out and dissolved in 10 ml of acetone. The resultant solution was diluted at proper times with acetone.
(2) With a micro-syringe, the acetone solution of the test compound was topically applied to the thoracic region of female green rice leafhoppers at a fixed dose of 0.2 μl per head.
(3) The female green rice leafhoppers thus treated were placed in a plastic cup prepared in advance (measuring 7 cm in diameter and 3.5 cm in depth and containing rice seeds) and kept at a constant temperature of 26±1° C. After 24 hours' standing, the dead insects were counted.
In the case of a mixed insecticide, the LD50 was shown as a total dosage.
On to `C=CCNC(=O)Oc1ccccc1C(C)C` [Compound 5, 2-isopropylphenyl-N-allylcarbamate], for which the “Insecticidal Activity R/S (resistant ratio)” value is given as 3.1.

The test system of the next series is green rice leafhoppers of the strain RN. Description: Test Example 3: dust spray test (20 mesh metal gauze cylinder). Format: in vivo, Nephotettix cincticeps. The settings on record: Table 9; dust mixed with 1; RN. Here is the method: The insecticides in the form of dust were tested for insecticidal activity.
The test for insecticidal activity was performed by the following procedure. […] The dust of a test compound (pulverized by means of a shaking pulverizer made by Taira Kosakusho, Ltd.) was applied onto the tube contents at a prescribed rate by spraying from outside the metal gauze by means of a bell-jar duster. The dust of the test compound was prepared uniformly mixing 2 parts of the dust of the individual compound or 1 part each of the dusts of the mixture components (total 2 parts) and 98 parts of a carrier obtained by mixing talc and clay in equal volumes.
As for `CCCNC(=O)Oc1ccccc1OCC` [Compound 80, 2-ethoxyphenyl-N-n-propylcarbamate], the “death ratio (%), mixture with Compound No. 1” value came out at 65.0%.
The same measure, in the same setting: with `CCCCNC(=O)Oc1ccccc1OC(C)C` [Compound 84] the figure was 0%; with `C=CCNC(=O)Oc1ccccc1OC(C)C` [Compound 85, 2-isopropoxyphenyl-N-allylcarbamate], 50.0%; with `CCCNC(=O)Oc1cccc(OCC)c1` [Compound 94, 3-ethoxyphenyl-N-n-propylcarbamate], 80.0%.
Consider `CCNC(=O)Oc1ccccc1OC(C)C` [Compound 82, 2-isopropoxyphenyl-N-ethylcarbamate], for which the “death ratio (%), mixture with Compound No. 1” value amounted to 25.0%.
The same measure, in the same setting: with `CCCNC(=O)Oc1ccccc1OC` [Compound 77, 2-methoxyphenyl-N-n-propylcarbamate] the figure was 95.0%.

The same series, now with this note: Table 9; dust mixed with 6*; RN.
For `CCCNC(=O)Oc1ccccc1OCC` [Compound 80, 2-ethoxyphenyl-N-n-propylcarbamate], the “death ratio (%), mixture with Compound No. 6*” value is listed as 60.0%.
Take `CCCCNC(=O)Oc1ccccc1OC(C)C` [Compound 84]: the “death ratio (%), mixture with Compound No. 6*” value was found to be 15.0%.
With `C=CCNC(=O)Oc1ccccc1OC(C)C` [Compound 85, 2-isopropoxyphenyl-N-allylcarbamate], the “death ratio (%), mixture with Compound No. 6*” value worked out at 45.0%.
Still for that read-out and setting: then `CCCNC(=O)Oc1cccc(OCC)c1` [Compound 94, 3-ethoxyphenyl-N-n-propylcarbamate], with 85.0%; and `CCNC(=O)Oc1ccccc1OC(C)C` [Compound 82, 2-isopropoxyphenyl-N-ethylcarbamate], with 50.0%; and `CCCNC(=O)Oc1ccccc1OC` [Compound 77, 2-methoxyphenyl-N-n-propylcarbamate], with 100%.

The same series, now with this note: Table 9; dust mixed with 24*; RN.
As to `CCCNC(=O)Oc1ccccc1OCC` [Compound 80, 2-ethoxyphenyl-N-n-propylcarbamate], the “death ratio (%), mixture with Compound No. 24*” value stood at 57.5%.
On the same count and under the same terms, with `CCCCNC(=O)Oc1ccccc1OC(C)C` [Compound 84] the figure was 5.0%.
Same read-out and setting: with `C=CCNC(=O)Oc1ccccc1OC(C)C` [Compound 85, 2-isopropoxyphenyl-N-allylcarbamate] the figure was 35.0%.
Take `CCCNC(=O)Oc1cccc(OCC)c1` [Compound 94, 3-ethoxyphenyl-N-n-propylcarbamate]: the “death ratio (%), mixture with Compound No. 24*” value is reported as 95.0%.
On to `CCNC(=O)Oc1ccccc1OC(C)C` [Compound 82, 2-isopropoxyphenyl-N-ethylcarbamate], for which the “death ratio (%), mixture with Compound No. 24*” value turned out to be 45.0%.
Consider `CCCNC(=O)Oc1ccccc1OC` [Compound 77, 2-methoxyphenyl-N-n-propylcarbamate], for which the “death ratio (%), mixture with Compound No. 24*” value was found to be 100%.

The series is the same for the next values; noted with them: Table 9; dust mixed with 35*; RN.
On to `CCCNC(=O)Oc1ccccc1OCC` [Compound 80, 2-ethoxyphenyl-N-n-propylcarbamate], for which the “death ratio (%), mixture with Compound No. 35*” value is reported as 65.0%.
Consider `CCCCNC(=O)Oc1ccccc1OC(C)C` [Compound 84], for which the “death ratio (%), mixture with Compound No. 35*” value is 10.0%.
`C=CCNC(=O)Oc1ccccc1OC(C)C` [Compound 85, 2-isopropoxyphenyl-N-allylcarbamate]: the “death ratio (%), mixture with Compound No. 35*” value is 75.0%.
Still for that read-out and setting: with `CCCNC(=O)Oc1cccc(OCC)c1` [Compound 94, 3-ethoxyphenyl-N-n-propylcarbamate] the figure was 95.0%; with `CCNC(=O)Oc1ccccc1OC(C)C` [Compound 82, 2-isopropoxyphenyl-N-ethylcarbamate], 60.0%; with `CCCNC(=O)Oc1ccccc1OC` [Compound 77, 2-methoxyphenyl-N-n-propylcarbamate], 100%.

The series is the same for the next values; noted with them: Table 9; dust mixed with 40*; RN.
As for `CCCNC(=O)Oc1ccccc1OCC` [Compound 80, 2-ethoxyphenyl-N-n-propylcarbamate], the “death ratio (%), mixture with Compound No. 40*” value was 55.0%.
For the molecule `CCCCNC(=O)Oc1ccccc1OC(C)C` [Compound 84], the “death ratio (%), mixture with Compound No. 40*” value is listed as 5.0%.
Take `C=CCNC(=O)Oc1ccccc1OC(C)C` [Compound 85, 2-isopropoxyphenyl-N-allylcarbamate]: the “death ratio (%), mixture with Compound No. 40*” value came out at 60.0%.
For the molecule `CCCNC(=O)Oc1cccc(OCC)c1` [Compound 94, 3-ethoxyphenyl-N-n-propylcarbamate], the “death ratio (%), mixture with Compound No. 40*” value worked out at 85.0%.
Still for that read-out and setting: then `CCNC(=O)Oc1ccccc1OC(C)C` [Compound 82, 2-isopropoxyphenyl-N-ethylcarbamate], with 45.0%; and `CCCNC(=O)Oc1ccccc1OC` [Compound 77, 2-methoxyphenyl-N-n-propylcarbamate], with 95.0%.

The same series, now with this note: Table 9; dust mixed with 49*; RN.
`CCCNC(=O)Oc1ccccc1OCC` [Compound 80, 2-ethoxyphenyl-N-n-propylcarbamate]: the “death ratio (%), mixture with Compound No. 49*” value was 15.0%.
As for `CCCCNC(=O)Oc1ccccc1OC(C)C` [Compound 84], the “death ratio (%), mixture with Compound No. 49*” value is given as 0%.
Regarding `C=CCNC(=O)Oc1ccccc1OC(C)C` [Compound 85, 2-isopropoxyphenyl-N-allylcarbamate], the “death ratio (%), mixture with Compound No. 49*” value is on record as 0%.
On the same count and under the same terms, then `CCCNC(=O)Oc1cccc(OCC)c1` [Compound 94, 3-ethoxyphenyl-N-n-propylcarbamate], with 35.0%; and `CCNC(=O)Oc1ccccc1OC(C)C` [Compound 82, 2-isopropoxyphenyl-N-ethylcarbamate], with 15.0%.
With `CCCNC(=O)Oc1ccccc1OC` [Compound 77, 2-methoxyphenyl-N-n-propylcarbamate], the “death ratio (%), mixture with Compound No. 49*” value worked out at 50.0%.

The same series, now with this note: Table 9; dust mixed with 81*; RN.
`CCCNC(=O)Oc1ccccc1OCC` [Compound 80, 2-ethoxyphenyl-N-n-propylcarbamate]: the “death ratio (%), mixture with Compound No. 81*” value was determined as 60.0%.
The same measure, in the same setting: then `CCCCNC(=O)Oc1ccccc1OC(C)C` [Compound 84], with 100%; and `C=CCNC(=O)Oc1ccccc1OC(C)C` [Compound 85, 2-isopropoxyphenyl-N-allylcarbamate], with 80.0%; and `CCCNC(=O)Oc1cccc(OCC)c1` [Compound 94, 3-ethoxyphenyl-N-n-propylcarbamate], with 95.0%.
For the molecule `CCNC(=O)Oc1ccccc1OC(C)C` [Compound 82, 2-isopropoxyphenyl-N-ethylcarbamate], the “death ratio (%), mixture with Compound No. 81*” value is recorded as 55.0%.
In the case of `CCCNC(=O)Oc1ccccc1OC` [Compound 77, 2-methoxyphenyl-N-n-propylcarbamate], the “death ratio (%), mixture with Compound No. 81*” value is 80.0%.

Still in this series, the particulars now being: Table 9; dust mixed with 118*; RN.
As for `CCCNC(=O)Oc1ccccc1OCC` [Compound 80, 2-ethoxyphenyl-N-n-propylcarbamate], the “death ratio (%), mixture with Compound No. 118*” value is reported as 70.0%.
In the case of `CCCCNC(=O)Oc1ccccc1OC(C)C` [Compound 84], the “death ratio (%), mixture with Compound No. 118*” value stood at 67.5%.
The same measure, in the same setting: then `C=CCNC(=O)Oc1ccccc1OC(C)C` [Compound 85, 2-isopropoxyphenyl-N-allylcarbamate], with 35.0%; and `CCCNC(=O)Oc1cccc(OCC)c1` [Compound 94, 3-ethoxyphenyl-N-n-propylcarbamate], with 95.0%; and `CCNC(=O)Oc1ccccc1OC(C)C` [Compound 82, 2-isopropoxyphenyl-N-ethylcarbamate], with 80.0%.
Turning to `CCCNC(=O)Oc1ccccc1OC` [Compound 77, 2-methoxyphenyl-N-n-propylcarbamate], the “death ratio (%), mixture with Compound No. 118*” value was determined as 100%.

Still in this series, the particulars now being: Table 9; dust mixed with Carbofuran; RN.
Regarding `CCCNC(=O)Oc1ccccc1OCC` [Compound 80, 2-ethoxyphenyl-N-n-propylcarbamate], the “death ratio (%), mixture with Carbofuran” value was 85.0%.
Same read-out and setting: with `CCCCNC(=O)Oc1ccccc1OC(C)C` [Compound 84] the figure was 55.0%; with `C=CCNC(=O)Oc1ccccc1OC(C)C` [Compound 85, 2-isopropoxyphenyl-N-allylcarbamate], 85.0%; with `CCCNC(=O)Oc1cccc(OCC)c1` [Compound 94, 3-ethoxyphenyl-N-n-propylcarbamate], 90.0%.
`CCNC(=O)Oc1ccccc1OC(C)C` [Compound 82, 2-isopropoxyphenyl-N-ethylcarbamate]: the “death ratio (%), mixture with Carbofuran” value is given as 80.0%.
In the case of `CCCNC(=O)Oc1ccccc1OC` [Compound 77, 2-methoxyphenyl-N-n-propylcarbamate], the “death ratio (%), mixture with Carbofuran” value is listed as 100%.

Staying with this series, now noted: Table 9; dust mixed with Methomyl; RN.
On to `CCCNC(=O)Oc1ccccc1OCC` [Compound 80, 2-ethoxyphenyl-N-n-propylcarbamate], for which the “death ratio (%), mixture with Methomyl” value amounted to 75.0%.
The same measure, in the same setting: with `CCCCNC(=O)Oc1ccccc1OC(C)C` [Compound 84] the figure was 70.0%; with `C=CCNC(=O)Oc1ccccc1OC(C)C` [Compound 85, 2-isopropoxyphenyl-N-allylcarbamate], 90.0%.
Regarding `CCCNC(=O)Oc1cccc(OCC)c1` [Compound 94, 3-ethoxyphenyl-N-n-propylcarbamate], the “death ratio (%), mixture with Methomyl” value was 100%.
`CCNC(=O)Oc1ccccc1OC(C)C` [Compound 82, 2-isopropoxyphenyl-N-ethylcarbamate]: the “death ratio (%), mixture with Methomyl” value was determined as 85.0%.
`CCCNC(=O)Oc1ccccc1OC` [Compound 77, 2-methoxyphenyl-N-n-propylcarbamate]: the “death ratio (%), mixture with Methomyl” value worked out at 100%.

The series is the same for the next values; noted with them: dust; compound alone; RN strain.
For `CCCNC(=O)Oc1ccccc1OCC` [Compound 80, 2-ethoxyphenyl-N-n-propylcarbamate], the “Effect of individual compound (RN), death ratio (%) (Table 9)” value (from here on “Effect … death ratio (%) (Table 9)”) is 0%.
For the molecule `CCCCNC(=O)Oc1ccccc1OC(C)C` [Compound 84], the “Effect … death ratio (%) (Table 9)” value came to 0%.
Regarding `C=CCNC(=O)Oc1ccccc1OC(C)C` [Compound 85, 2-isopropoxyphenyl-N-allylcarbamate], the “Effect … death ratio (%) (Table 9)” value stood at 25.0%.
In the case of `CCCNC(=O)Oc1cccc(OCC)c1` [Compound 94, 3-ethoxyphenyl-N-n-propylcarbamate], the “Effect … death ratio (%) (Table 9)” value is on record as 0%.
Same read-out and setting: then `CNC(=O)Oc1cc(C)c(N(C)C)c(C)c1` [Compound 118, 4-dimethylamino-3,5-dimethylphenyl-N-methylcarbamate, reference compound], with 23.4%; and `CCNC(=O)Oc1ccccc1OC(C)C` [Compound 82, 2-isopropoxyphenyl-N-ethylcarbamate], with 15.0%.
As for `CNC(=O)Oc1cccc2c1OC(C)(C)C2` [Carbofuran, 2,3dihydro-2,2-dimethyl-benzofuran-7-yl-N-methylcarbamate, reference compound], the “Effect … death ratio (%) (Table 9)” value came to 40.0%.
Regarding `CCCNC(=O)Oc1ccccc1OC` [Compound 77, 2-methoxyphenyl-N-n-propylcarbamate], the “Effect … death ratio (%) (Table 9)” value is recorded as 45.0%.
On to `CNC(=O)ON=C(C)SC` [Methomyl, 1(methylthio)ethylideneamino-N-methylcarbamate, reference compound], for which the “Effect … death ratio (%) (Table 9)” value is recorded as 35.0%.
